Experimental data: ChEMBL document CHEMBL1201862, “PubChem BioAssay data set” (2004)
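How tested: cells in 96-well plates exposed to compound for 48 hours at five concentrations. GI50 is the concentration that inhibits growth by half.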 The source made the active and inactive calls. Rule as the data show it: active = GI50 up to about 1.1 µM and inactive = higher.

Assays:
Assay in all cases: growth of human tumour cells (NCI), 48 h
HOP-92 = system: HOP-92
UACC-62 = system: UACC-62
KM12 = system: KM12
HOP-62 = system: HOP-62
LOX IMVI = system: LOX IMVI
RXF 393 = system: RXF 393
SN12C = system: SN12C
NCI-H23 = system: NCI-H23
SK-MEL-28 = system: SK-MEL-28
Malme-3M = system: Malme-3M
HCC 2998 = system: HCC 2998
ACHN = system: ACHN
NCI-H226 = system: NCI-H226
OVCAR-4 = system: OVCAR-4
M14 = system: M14
786-0 = system: 786-0
OVCAR-5 = system: OVCAR-5
TK-10 = system: TK-10
OVCAR-8 = system: OVCAR-8
MOLT-4 = system: MOLT-4

O=C(CCc1nnc(S)[nH]1)NC12CC3CC(CC(C3)C1)C2
GI50 (HOP-92): > 100 µM (inactive) | GI50 (UACC-62): > 100 µM (inactive) | GI50 (KM12): > 100 µM (inactive) | GI50 (HOP-62): > 100 µM (inactive) | GI50 (LOX IMVI): > 100 µM (inactive) | GI50 (RXF 393): > 100 µM (inactive) | GI50 (SN12C): > 100 µM (inactive) | GI50 (NCI-H23): > 100 µM (inactive) | GI50 (SK-MEL-28): > 100 µM (inactive) | GI50 (Malme-3M): > 100 µM (inactive) | GI50 (HCC 2998): > 100 µM (inactive) | GI50 (ACHN): > 100 µM (inactive) | GI50 (NCI-H226): > 100 µM (inactive) | GI50 (OVCAR-4): > 100 µM (inactive) | GI50 (M14): > 100 µM (inactive) | GI50 (786-0): > 100 µM (inactive) | GI50 (OVCAR-5): > 100 µM (inactive) | GI50 (TK-10): > 100 µM (inactive) | GI50 (OVCAR-8): > 100 µM (inactive)

O=C1C(Cl)=C(N2CCN(c3ncccn3)CC2)C(=O)c2c(O)ccc(O)c21
GI50 (HOP-92): 2.37 µM (inactive) | GI50 (UACC-62): 2.59 µM (inactive) | GI50 (KM12): 4.43 µM (inactive) | GI50 (HOP-62): 2.55 µM (inactive) | GI50 (LOX IMVI): 1.72 µM (inactive) | GI50 (RXF 393): 1.78 µM (inactive) | GI50 (SN12C): 1.85 µM (inactive) | GI50 (NCI-H23): 2.27 µM (inactive) | GI50 (SK-MEL-28): 2.23 µM (inactive) | GI50 (Malme-3M): 1.94 µM (inactive) | GI50 (MOLT-4): 0.697 µM (active) | GI50 (HCC 2998): 10.8 µM (inactive) | GI50 (ACHN): 2.43 µM (inactive) | GI50 (NCI-H226): 21.8 µM (inactive) | GI50 (OVCAR-4): 1.98 µM (inactive) | GI50 (M14): 1.88 µM (inactive) | GI50 (786-0): 1.6 µM (inactive) | GI50 (OVCAR-5): 7.91 µM (inactive) | GI50 (TK-10): 1.89 µM (inactive) | GI50 (OVCAR-8): 2.18 µM (inactive)

O=C(CC1=Nc2nnc(-c3nnc4n3C(=O)C(CC(=O)c3cccnc3)=N4)n2C1=O)c1cccnc1
GI50 (HOP-92): > 100 µM (inactive) | GI50 (UACC-62): > 100 µM (inactive) | GI50 (KM12): > 100 µM (inactive) | GI50 (HOP-62): > 100 µM (inactive) | GI50 (LOX IMVI): > 100 µM (inactive) | GI50 (RXF 393): > 100 µM (inactive) | GI50 (SN12C): > 100 µM (inactive) | GI50 (NCI-H23): > 100 µM (inactive) | GI50 (SK-MEL-28): > 100 µM (inactive) | GI50 (Malme-3M): > 100 µM (inactive) | GI50 (MOLT-4): > 100 µM (inactive) | GI50 (HCC 2998): > 100 µM (inactive) | GI50 (ACHN): > 100 µM (inactive) | GI50 (NCI-H226): > 100 µM (inactive) | GI50 (OVCAR-4): > 100 µM (inactive) | GI50 (M14): > 100 µM (inactive) | GI50 (786-0): > 100 µM (inactive) | GI50 (OVCAR-5): > 100 µM (inactive) | GI50 (TK-10): > 100 µM (inactive)

N#CCCN(CCC#N)c1ccc(/C=N\c2ccc(F)cc2)cc1
GI50 (HOP-92): > 100 µM (inactive) | GI50 (UACC-62): 0.536 µM (active) | GI50 (HOP-62): 27.1 µM (inactive) | GI50 (LOX IMVI): 0.236 µM (active) | GI50 (RXF 393): > 57 µM (inactive) | GI50 (SN12C): > 75 µM (inactive) | GI50 (NCI-H23): > 100 µM (inactive) | GI50 (SK-MEL-28): > 48.5 µM (inactive) | GI50 (Malme-3M): > 84.3 µM (inactive) | GI50 (MOLT-4): > 19.8 µM (inactive) | GI50 (HCC 2998): 1.33 µM (inactive) | GI50 (ACHN): 3.16 µM (inactive) | GI50 (NCI-H226): > 100 µM (inactive) | GI50 (OVCAR-4): > 49.1 µM (inactive) | GI50 (M14): 1.62 µM (inactive) | GI50 (786-0): > 31.3 µM (inactive) | GI50 (TK-10): > 24 µM (inactive) | GI50 (OVCAR-8): > 100 µM (inactive)

CC(C)N(O)C(=N)c1ccccc1
GI50 (HOP-92): > 100 µM (inactive) | GI50 (KM12): > 100 µM (inactive) | GI50 (HOP-62): > 100 µM (inactive) | GI50 (LOX IMVI): > 100 µM (inactive) | GI50 (RXF 393): > 100 µM (inactive) | GI50 (SN12C): > 100 µM (inactive) | GI50 (NCI-H23): > 100 µM (inactive) | GI50 (SK-MEL-28): > 100 µM (inactive) | GI50 (Malme-3M): > 10 µM (inactive) | GI50 (HCC 2998): > 100 µM (inactive) | GI50 (NCI-H226): > 100 µM (inactive) | GI50 (OVCAR-4): > 100 µM (inactive) | GI50 (M14): > 100 µM (inactive) | GI50 (786-0): 54.7 µM (inactive) | GI50 (OVCAR-5): > 100 µM (inactive) | GI50 (TK-10): > 100 µM (inactive) | GI50 (OVCAR-8): > 100 µM (inactive)

CCN(CC)c1ccc(C(=C2C=CC(=[N+](CC)CC)C=C2)c2ccccc2)cc1
GI50 (HOP-92): 0.0338 µM (active) | GI50 (UACC-62): 0.0451 µM (active) | GI50 (KM12): 0.0324 µM (active) | GI50 (HOP-62): 0.102 µM (active) | GI50 (LOX IMVI): 0.0219 µM (active) | GI50 (RXF 393): 0.022 µM (active) | GI50 (SN12C): 0.0254 µM (active) | GI50 (NCI-H23): 0.0283 µM (active) | GI50 (SK-MEL-28): 0.0537 µM (active) | GI50 (Malme-3M): 0.0304 µM (active) | GI50 (MOLT-4): 0.0151 µM (active) | GI50 (HCC 2998): 0.0351 µM (active) | GI50 (ACHN): 0.0313 µM (active) | GI50 (NCI-H226): 0.023 µM (active) | GI50 (OVCAR-4): 0.0353 µM (active) | GI50 (M14): 0.0163 µM (active) | GI50 (786-0): 0.0352 µM (active) | GI50 (OVCAR-5): 0.134 µM (active)

CCOC(=O)C(NC(=O)c1cccc(Cl)c1)(N1CCN(c2cc3c(cc2F)c(=O)c(C(=O)O)cn3C2CC2)CC1)C(F)(F)F (stereo unspecified)
GI50 (HOP-92): 16.3 µM (inactive) | GI50 (UACC-62): 15.3 µM (inactive) | GI50 (KM12): 11.5 µM (inactive) | GI50 (HOP-62): 22.2 µM (inactive) | GI50 (RXF 393): 17 µM (inactive) | GI50 (SN12C): 26.9 µM (inactive) | GI50 (NCI-H23): 15.4 µM (inactive) | GI50 (SK-MEL-28): 16.5 µM (inactive) | GI50 (Malme-3M): 18 µM (inactive) | GI50 (MOLT-4): 3.71 µM (inactive) | GI50 (HCC 2998): 19.4 µM (inactive) | GI50 (ACHN): 15.5 µM (inactive) | GI50 (NCI-H226): 19.5 µM (inactive) | GI50 (OVCAR-4): 15.7 µM (inactive) | GI50 (M14): 15.9 µM (inactive) | GI50 (786-0): 14.6 µM (inactive) | GI50 (OVCAR-5): 16.7 µM (inactive) | GI50 (OVCAR-8): 17.5 µM (inactive)

N#Cc1c(O)c(/C=N/c2ncccn2)c(=O)n2c1[nH]c1ccccc12
GI50 (HOP-92): > 100 µM (inactive) | GI50 (KM12): > 100 µM (inactive) | GI50 (LOX IMVI): > 100 µM (inactive) | GI50 (RXF 393): > 100 µM (inactive) | GI50 (SN12C): > 100 µM (inactive) | GI50 (NCI-H23): > 100 µM (inactive) | GI50 (SK-MEL-28): > 100 µM (inactive) | GI50 (Malme-3M): > 100 µM (inactive) | GI50 (MOLT-4): > 100 µM (inactive) | GI50 (HCC 2998): > 100 µM (inactive) | GI50 (NCI-H226): > 100 µM (inactive) | GI50 (OVCAR-4): > 100 µM (inactive) | GI50 (M14): > 100 µM (inactive) | GI50 (786-0): > 100 µM (inactive) | GI50 (OVCAR-5): > 100 µM (inactive) | GI50 (TK-10): > 100 µM (inactive) | GI50 (OVCAR-8): > 100 µM (inactive)
